Values quoted from earlier work as cited in article PMC7904743, “WIDOCK: a reactive docking protocol for virtual screening of covalent inhibitors” (Journal of Computer-Aided Molecular Design, 2021).
Read-outs that look alike come from different tables or passages of the source.

Columns and labels:
OTUB2 = conditions: experimental actives if % labeling higher than 50%; cited from earlier work
NUDT7 = conditions: protein labeling at 200 μM; experimental actives if % labeling higher than 50%; cited from earlier work
[1] = thiol reactivity, cited from earlier work
[2] = natural log of average rate constant k
[3] = natural logarithm of average rate constant

Structure (SMILES) | OTUB2 % labeling (OTUB2) [%] | NUDT7 % labeling (NUDT7) [%] | ln(avg k) [1, 2] | ln(avg k) [1, 3]
Cc1ccc(C(=O)O)cc1NC(=O)CCl [PCM-0102624, Cc1ccc(C(=O)O)cc1NC(=O)CCl] | 0 | 0 | -17.065 | -17.065
O=C(CCl)N1CCCc2cc(S(=O)(=O)N3CCCC3)ccc21 [PCM-0102625, O=C(CCl)N1CCCc2cc(S(=O)(=O)N3CCCC3)ccc21] | 0 | 0 | -15.992 | -15.992
CC(C)C(C)(C#N)NC(=O)CCl (stereo not shown) [PCM-0102626, CC(C)C(C)(C#N)NC(=O)CCl] | 0 | 0 | -15.951 | -15.951
Cc1ccc(S(=O)(=O)N2CCN(C(=O)CCl)CC2)c(C)c1 [PCM-0102628, Cc1ccc(S(=O)(=O)N2CCN(C(=O)CCl)CC2)c(C)c1] | 0 | 0 | -15.546 | -15.546
Cc1nc(CN2CCN(C(=O)CCl)CC2)cs1 [PCM-0102630, Cc1nc(CN2CCN(C(=O)CCl)CC2)cs1] | 0 | 0 | -15.690 | -15.690
CN(Cc1cccs1)C(=O)CCl [PCM-0102636, CN(Cc1cccs1)C(=O)CCl] | 0 | 17 | -15.483 | -15.483
Cc1cc(N2CCN(C(=O)CCl)CC2)nc(C(C)C)n1 [PCM-0102638, Cc1cc(N2CCN(C(=O)CCl)CC2)nc(C(C)C)n1] | 0 | 0 | -16.816 | -16.816
COc1ccc(NC(=O)CCl)cc1Cl [PCM-0102652, COc1ccc(NC(=O)CCl)cc1Cl] | 24 | 12 | -15.680 | -15.680
O=C(CCl)Nc1cccnc1 [PCM-0102653, O=C(CCl)Nc1cccnc1] | 0 | 0 | -16.863 | -16.863
CCNC(=O)NC(=O)CCl [PCM-0102654, CCNC(=O)NC(=O)CCl] | 0 | 0 | -16.588 | -16.588
O=C(CCl)N1CCC(C(=O)N2CCCC2)CC1 [PCM-0102655, O=C(CCl)N1CCC(C(=O)N2CCCC2)CC1] | 0 | 0 | -15.795 | -15.795
CCOC(=O)C1CCN(C(=O)CCl)CC1 [PCM-0102656, CCOC(=O)C1CCN(C(=O)CCl)CC1] | 0 | 0 | -15.523 | -15.523
O=C(CCl)Nc1ccccc1 [PCM-0102658, O=C(CCl)Nc1ccccc1] | 0 | 0 | -16.281 | -16.281
O=C(CCl)N1N=C(c2ccco2)CC1c1ccsc1 (stereo not shown) [PCM-0102659, O=C(CCl)N1N=C(c2ccco2)CC1c1ccsc1] | 0 | 39 | -14.828 | -14.828
Cc1ccc(CNC(=O)CCl)cc1 [PCM-0102660, Cc1ccc(CNC(=O)CCl)cc1] | 63 | 0 | -16.571 | -16.571
O=C(CCl)Nc1ccc2c(c1)CCC2 [PCM-0102662, O=C(CCl)Nc1ccc2c(c1)CCC2] | 14 | 12 | -16.202 | -16.202
CC1CCCC(NC(=O)CCl)C1C (stereo not shown) [PCM-0102663, CC1CCCC(NC(=O)CCl)C1C] | 29 | 0 | -16.862 | -16.862
CC(C#N)(NC(=O)CCl)C1CC1 (stereo not shown) [PCM-0102664, CC(C#N)(NC(=O)CCl)C1CC1] | 0 | 0 | -16.170 | -16.170
Cc1cc(NC(=O)CCl)n(-c2ccc(F)cc2)n1 [PCM-0102665, Cc1cc(NC(=O)CCl)n(-c2ccc(F)cc2)n1] | 53 | 0 | -15.905 | -15.905
CC1CCC2(CC1)NC(=O)N(NC(=O)CCl)C2=O (stereo not shown) [PCM-0102666, CC1CCC2(CC1)NC(=O)N(NC(=O)CCl)C2=O] | 0 | 0 | -17.364 | -17.364
CN(C(=O)CCl)c1ccc([N+](=O)[O-])cc1 [PCM-0102669, CN(C(=O)CCl)c1ccc([N+](=O)[O-])cc1] | 0 | 14 | -15.479 | -15.479
O=C(CCl)Nc1ccc(N2CCCC2)cc1 [PCM-0102670, O=C(CCl)Nc1ccc(N2CCCC2)cc1] | 48 | 0 | -13.297 | -13.297
